Measurements published in PubChem BioAssay AID1259407 (Chemical Carcinogenesis Research Information System (CCRIS), 2018).
Calls of active or inactive are those of the source. The rule behind the calls is not given here.

Test system: CCRIS mutagenicity, Ames/micronucleus/aberration tests
Test: CCRIS mutagenicity studies
[1] = Test System: AMES SALMONELLA TYPHIMURIUM, Strain/Indicator: TA97, Metabolic Activation: NONE, Method: PREINCUBATION
[2] = Test System: AMES SALMONELLA TYPHIMURIUM, Strain/Indicator: TA98, Metabolic Activation: NONE, Method: PREINCUBATION
[3] = Test System: AMES SALMONELLA TYPHIMURIUM, Strain/Indicator: TA100, Metabolic Activation: NONE, Method: PREINCUBATION
[4] = Test System: AMES SALMONELLA TYPHIMURIUM, Strain/Indicator: TA1535, Metabolic Activation: NONE, Method: PREINCUBATION
[5] = Test System: AMES SALMONELLA TYPHIMURIUM, Strain/Indicator: TA1537, Metabolic Activation: NONE, Method: PREINCUBATION

Compound: c1ccc(N(c2ccccc2)c2ccccc2)cc1
- mutagenic call (Test System: AMES SALMONELLA TYPHIMURIUM, Strain/Indicator: TA97, Metabolic Activation: HAMSTER, LIVER, S-9, AROCLOR 1254 (10 OR 30%), Method: PREINCUBATION): inactive; negative
- mutagenic call [1]: inactive; negative
- mutagenic call (Test System: AMES SALMONELLA TYPHIMURIUM, Strain/Indicator: TA97, Metabolic Activation: RAT, LIVER, S-9, AROCLOR 1254 (10 OR 30%), Method: PREINCUBATION): inactive; negative
- mutagenic call (Test System: AMES SALMONELLA TYPHIMURIUM, Strain/Indicator: TA98, Metabolic Activation: HAMSTER, LIVER, S-9, AROCLOR 1254 (10%), Method: PREINCUBATION): inactive; negative
- mutagenic call (Test System: AMES SALMONELLA TYPHIMURIUM, Strain/Indicator: TA98, Metabolic Activation: HAMSTER, LIVER, S-9, AROCLOR 1254 (10 OR 30%), Method: PREINCUBATION): inactive; negative
- mutagenic call [2]: inactive; negative
- mutagenic call (Test System: AMES SALMONELLA TYPHIMURIUM, Strain/Indicator: TA98, Metabolic Activation: RAT, LIVER, S-9, AROCLOR 1254 (10%), Method: PREINCUBATION): inactive; negative
- mutagenic call (Test System: AMES SALMONELLA TYPHIMURIUM, Strain/Indicator: TA98, Metabolic Activation: RAT, LIVER, S-9, AROCLOR 1254 (10 OR 30%), Method: PREINCUBATION): inactive; negative
- mutagenic call (Test System: AMES SALMONELLA TYPHIMURIUM, Strain/Indicator: TA100, Metabolic Activation: HAMSTER, LIVER, S-9, AROCLOR 1254 (10%), Method: PREINCUBATION): inactive; negative
- mutagenic call (Test System: AMES SALMONELLA TYPHIMURIUM, Strain/Indicator: TA100, Metabolic Activation: HAMSTER, LIVER, S-9, AROCLOR 1254 (10 OR 30%), Method: PREINCUBATION): inactive; negative
- mutagenic call [3]: inactive; negative
- mutagenic call (Test System: AMES SALMONELLA TYPHIMURIUM, Strain/Indicator: TA100, Metabolic Activation: RAT, LIVER, S-9, AROCLOR 1254 (10%), Method: PREINCUBATION): inactive; negative
- mutagenic call (Test System: AMES SALMONELLA TYPHIMURIUM, Strain/Indicator: TA100, Metabolic Activation: RAT, LIVER, S-9, AROCLOR 1254 (10 OR 30%), Method: PREINCUBATION): inactive; negative
- mutagenic call (Test System: AMES SALMONELLA TYPHIMURIUM, Strain/Indicator: TA1535, Metabolic Activation: HAMSTER, LIVER, S-9, AROCLOR 1254 (10%), Method: PREINCUBATION): inactive; negative
- mutagenic call (Test System: AMES SALMONELLA TYPHIMURIUM, Strain/Indicator: TA1535, Metabolic Activation: HAMSTER, LIVER, S-9, AROCLOR 1254 (10 OR 30%), Method: PREINCUBATION): inactive; negative
- mutagenic call [4]: inactive; negative
- mutagenic call (Test System: AMES SALMONELLA TYPHIMURIUM, Strain/Indicator: TA1535, Metabolic Activation: RAT, LIVER, S-9, AROCLOR 1254 (10%), Method: PREINCUBATION): inactive; negative
- mutagenic call (Test System: AMES SALMONELLA TYPHIMURIUM, Strain/Indicator: TA1535, Metabolic Activation: RAT, LIVER, S-9, AROCLOR 1254 (10 OR 30%), Method: PREINCUBATION): inactive; negative
- mutagenic call (Test System: AMES SALMONELLA TYPHIMURIUM, Strain/Indicator: TA1537, Metabolic Activation: HAMSTER, LIVER, S-9, AROCLOR 1254 (10%), Method: PREINCUBATION): inactive; negative
- mutagenic call (Test System: AMES SALMONELLA TYPHIMURIUM, Strain/Indicator: TA1537, Metabolic Activation: HAMSTER, LIVER, S-9, AROCLOR 1254 (10 OR 30%), Method: PREINCUBATION): inactive; negative
- mutagenic call [5]: inactive; negative
- mutagenic call (Test System: AMES SALMONELLA TYPHIMURIUM, Strain/Indicator: TA1537, Metabolic Activation: RAT, LIVER, S-9, AROCLOR 1254 (10%), Method: PREINCUBATION): inactive; negative
- mutagenic call (Test System: AMES SALMONELLA TYPHIMURIUM, Strain/Indicator: TA1537, Metabolic Activation: RAT, LIVER, S-9, AROCLOR 1254 (10 OR 30%), Method: PREINCUBATION): inactive; negative

Compound: CCOC(=O)CC(C)=O
- mutagenic call [1]: inactive; negative
- mutagenic call (Test System: AMES SALMONELLA TYPHIMURIUM, Strain/Indicator: TA97, Metabolic Activation: RAT, LIVER, S-9, AROCLOR 1254, Method: PREINCUBATION): inactive; negative
- mutagenic call [2]: inactive; negative
- mutagenic call (Test System: AMES SALMONELLA TYPHIMURIUM, Strain/Indicator: TA98, Metabolic Activation: RAT LIVER S-9, PHENOBARBITAL AND BETA-NAPHTHOFLAVONE, Method: PREINCUBATION): inactive; negative
- mutagenic call [3]: inactive; negative
- mutagenic call (Test System: AMES SALMONELLA TYPHIMURIUM, Strain/Indicator: TA100, Metabolic Activation: RAT LIVER S-9, PHENOBARBITAL AND BETA-NAPHTHOFLAVONE, Method: PREINCUBATION): inactive; negative
- mutagenic call (Test System: AMES SALMONELLA TYPHIMURIUM, Strain/Indicator: TA102, Metabolic Activation: NONE, Method: PREINCUBATION): inactive; negative
- mutagenic call (Test System: AMES SALMONELLA TYPHIMURIUM, Strain/Indicator: TA102, Metabolic Activation: RAT, LIVER, S-9, AROCLOR 1254, Method: PREINCUBATION): inactive; negative
- mutagenic call [4]: inactive; negative
- mutagenic call (Test System: AMES SALMONELLA TYPHIMURIUM, Strain/Indicator: TA1535, Metabolic Activation: RAT LIVER S-9, PHENOBARBITAL AND BETA-NAPHTHOFLAVONE, Method: PREINCUBATION): inactive; negative
- mutagenic call [5]: inactive; negative
- mutagenic call (Test System: AMES SALMONELLA TYPHIMURIUM, Strain/Indicator: TA1537, Metabolic Activation: RAT LIVER S-9, PHENOBARBITAL AND BETA-NAPHTHOFLAVONE, Method: PREINCUBATION): inactive; negative
- mutagenic call (Test System: AMES SALMONELLA TYPHIMURIUM, Strain/Indicator: TA1538, Metabolic Activation: NONE, Method: PREINCUBATION): inactive; negative
- mutagenic call (Test System: AMES SALMONELLA TYPHIMURIUM, Strain/Indicator: TA1538, Metabolic Activation: RAT LIVER S-9, PHENOBARBITAL AND BETA-NAPHTHOFLAVONE, Method: PREINCUBATION): inactive; negative
- mutagenic call (Test System: E.COLI, Strain/Indicator: WP2UVRA, Metabolic Activation: NONE, Method: PREINCUBATION): inactive; negative
- mutagenic call (Test System: E.COLI, Strain/Indicator: WP2UVRA, Metabolic Activation: RAT LIVER S-9, PHENOBARBITAL AND BETA-NAPHTHOFLAVONE, Method: PREINCUBATION): inactive; negative

Compound: CC12C=CC(C1)C1C(=O)OC(=O)C12 (configuration not stated)
- mutagenic call (Test System: Ames Salmonella typhimurium, Strain/Indicator: TA98, Metabolic Activation: None, Method: Preincubation): inactive; negative
- mutagenic call (Test System: Ames Salmonella typhimurium, Strain/Indicator: TA98, Metabolic Activation: Rat, Liver, S-9, Phenobarbital and 5,6-benzoflavone, Method: Preincubation): inactive; negative
- mutagenic call (Test System: Ames Salmonella typhimurium, Strain/Indicator: TA100, Metabolic Activation: None, Method: Preincubation): inactive; negative
- mutagenic call (Test System: Ames Salmonella typhimurium, Strain/Indicator: TA100, Metabolic Activation: Rat, Liver, S-9, Phenobarbital and 5,6-benzoflavone, Method: Preincubation): inactive; negative
- mutagenic call (Test System: Ames Salmonella typhimurium, Strain/Indicator: TA1535, Metabolic Activation: None, Method: Preincubation): inactive; negative
- mutagenic call (Test System: Ames Salmonella typhimurium, Strain/Indicator: TA1535, Metabolic Activation: Rat, Liver, S-9, Phenobarbital and 5,6-benzoflavone, Method: Preincubation): inactive; negative
- mutagenic call (Test System: Ames Salmonella typhimurium, Strain/Indicator: TA1537, Metabolic Activation: None, Method: Preincubation): inactive; negative
- mutagenic call (Test System: Ames Salmonella typhimurium, Strain/Indicator: TA1537, Metabolic Activation: Rat, Liver, S-9, Phenobarbital and 5,6-benzoflavone, Method: Preincubation): inactive; negative
- mutagenic call (Test System: E. coli, Strain/Indicator: WP2uvrA/pKM101, Metabolic Activation: None, Method: Preincubation): inactive; negative
- mutagenic call (Test System: E. coli, Strain/Indicator: WP2uvrA/pKM101, Metabolic Activation: Rat, Liver, S-9, Phenobarbital and 5,6-benzoflavone, Method: Preincubation): inactive; negative

Compound: Cn1c([N+](=O)[O-])nc2ccccc21
- mutagenic call (Test System: AMES SALMONELLA TYPHIMURIUM, Strain/Indicator: TA98, Metabolic Activation: NONE, Method: STANDARD PLATE): active; positive

Compound: NOS(=O)(=O)O
- mutagenic call (Test System: AMES SALMONELLA TYPHIMURIUM, Strain/Indicator: G46, Metabolic Activation: RAT, LIVER, S-9, AROCLOR 1254, Method: STANDARD PLATE): active; positive
- mutagenic call (Test System: AMES SALMONELLA TYPHIMURIUM, Strain/Indicator: TA100, Metabolic Activation: RAT, LIVER, S-9, AROCLOR 1254, Method: STANDARD PLATE): inactive; negative
